Data as given in US20060062725A1, “Methods for preparing metal-carborane complexes for radioimaging and radiotherapy” (priority 2004, published 2006).

Test: Stability of [99mTc(CO)3(OH2)3]+ prepared with the KF kit
Assay type: physicochemical
Details: prepared in the presence of KF
Protocol: Commercially available kits contain sodium tartrate to prevent premature decomposition of [^99mTc(CO)3(OH2)3]^+. Thinking that the chelate was interfering with the fluoride mediated complexation reaction, a kit in which KF was substituted for tartrate was prepared.

For [^99mTc(CO)3(OH2)3]^+, the time stable was “greater than 6 h”.
